Consider 22 molecules from ChEMBL document CHEMBL1135303, “Design and synthesis of aminophenol-based factor Xa inhibitors” (Bioorg Med Chem Lett, 2002).

In one assay the target is Coagulation factor X (Homo sapiens, UniProt P00742). Nature of the assay: Competitive inhibition of coagulation factor Xa.
The target in assay [1] is T1, Prothrombin (Homo sapiens, UniProt P00734). The assay can be described thus: Competitive inhibition of coagulation factor IIa.
Assay [2] addresses Serine protease 1 (Homo sapiens) (UniProt P07477). Nature of the assay: The selectivity ratio for Trypsin and Coagulation factor Xa was determined.
Assay [3] deals with T1, Prothrombin. The assay can be described thus: Concentration required for twofold increase in thrombin clotting time in human plasma. The format is functional, cell-free.
Assay [4] has as its target T1, Prothrombin. Nature of the assay: Concentration required to double the prothrombin based clotting time in human plasma. Type of assay: functional, cell-free.
In another assay the target is T2, Serine protease 1 (Bos taurus, UniProt P00760).
T2 sequence (P00760 whole entry): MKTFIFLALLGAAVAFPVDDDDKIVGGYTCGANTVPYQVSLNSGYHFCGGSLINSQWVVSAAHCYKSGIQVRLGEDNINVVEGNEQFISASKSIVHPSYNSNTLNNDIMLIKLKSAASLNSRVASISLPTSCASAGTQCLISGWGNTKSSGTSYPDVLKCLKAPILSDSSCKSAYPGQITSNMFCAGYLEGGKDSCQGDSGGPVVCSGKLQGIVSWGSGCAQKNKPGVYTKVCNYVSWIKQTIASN
The assay can be described thus: Competitive inhibition of trypsin.

For `CCOC(=O)CCC(=O)N(C/C=C/c1cccc(C(=N)N)c1)c1ccc(OC2CCN(C(C)=N)CC2)c(C(F)(F)F)c1`, the Ki is 0.55 nM on Coagulation factor X, 1000 nM at Prothrombin [1] and 76 nM on Serine protease 1. Moreover, the Ratio in assay [2] is 140. Moreover, the Concentration on Prothrombin [3] was 32 µM; on Prothrombin [4], 0.87 µM.
As for `CC(=N)N1CCC(Oc2ccc(NCc3ccc4ccc(C(=N)N)cc4c3)cc2[N+](=O)[O-])CC1`, the results for the Ki at Coagulation factor X, at Prothrombin [1] and at Serine protease 1 were 0.08 nM, 1960 nM and 7 nM, respectively.
With `CC(=O)N1CCC(Oc2ccc(N(C/C=C/c3cc(C(=N)N)ccc3O)C(=O)CCC(=O)O)cc2C(F)(F)F)CC1`, the inhibitory constant (Ki) at Coagulation factor X is 3 nM; at Prothrombin [1], above 5500 nM; at Serine protease 1, 891 nM. For the same molecule, the figures for the Concentration on Prothrombin [3] and at Prothrombin [4] were 173 µM and 3 µM, respectively.
As for `CC(=N)N1CCC(Oc2ccc(NC/C=C/c3cccc(C(=N)N)c3)cc2)CC1`, the Ki at Coagulation factor X was 7.5 nM; on Prothrombin [1], 5000 nM; on Serine protease 1, 80 nM.
For `CC(=N)N1CCC(Oc2ccc(NC/C=C/c3cccc(C(=N)N)c3)cc2C(F)(F)F)CC1`, the Ki on Coagulation factor X came out at 0.88 nM; at Prothrombin [1], 2140 nM; on Serine protease 1, 50 nM. Further, the Concentration at Prothrombin [3] is 220 µM; on Prothrombin [4], 0.8 µM.
On to `CC(=N)N1CCC(Oc2ccc(NCc3cccc(-c4cccc(C(=N)N)c4)c3)cc2[N+](=O)[O-])CC1`, for which the Ki at Coagulation factor X was found to be 0.17 nM; on Prothrombin [1] it was 400 nM; at Serine protease 1, 42 nM.
As for `CC(=N)N1CCC(Oc2ccc(N(C/C=C/c3cccc(C(=N)N)c3)C(=O)CCC(=O)O)cc2C(F)(F)F)CC1`, the Ki on Coagulation factor X was 0.28 nM; at Prothrombin [1], 5000 nM; on Serine protease 1, 110 nM. For the same molecule, the figures for the Concentration on Prothrombin [3] and at Prothrombin [4] were 540 µM and 0.75 µM, respectively.
For `CCOC(=O)c1cc(NC/C=C/c2cccc(C(=N)N)c2)ccc1OC1CCN(C(C)=N)CC1` the same measures were 6.8 nM, 480 nM, 40 nM, 15 µM and 2.6 µM.
As for `CC(=N)N1CCC(Oc2ccc(N(C/C=C/c3cc(C(=N)N)ccc3O)C(=O)CCC(=O)O)cc2C(F)(F)F)CC1`, the figures for the Ki at Coagulation factor X, on Prothrombin [1] and on Serine protease 1 were 0.1 nM, 5140 nM and 280 nM, respectively. Also, the Ratio in assay [2] worked out at 2800. The Concentration at Prothrombin [3] worked out at 174 µM; at Prothrombin [4], 0.54 µM.
Turning to `CC(=N)N1CCC(Oc2ccc(NC/C=C/c3cccc(C(=N)N)c3)cc2F)CC1`, the Ki on Coagulation factor X came to 4.1 nM; at Prothrombin [1], 4700 nM; at Serine protease 1 it was 70 nM. In addition, the Concentration on Prothrombin [3] was 240 µM; on Prothrombin [4], 0.73 µM.
For the molecule `CC(=N)N1CCC(Oc2ccc3c(nc(C)n3Cc3ccc4ccc(C(=N)N)cc4c3)c2[N+](=O)[O-])CC1`, the Ki at Coagulation factor X stood at 0.3 nM; on Prothrombin [1], 5000 nM; on Serine protease 1, 3 nM.
With `CC(=N)N1CCC(Oc2ccc(N(C/C=C/c3cccc(C(=N)N)c3)C(=O)c3ccc(C(=O)O)c(C(=O)O)c3)cc2C(F)(F)F)CC1`, the Ki at Coagulation factor X came out at 0.56 nM; on Prothrombin [1] it was 3260 nM; at Serine protease 1 it was 10 nM. Further, the Concentration amounted to 200 µM at Prothrombin [3] and 0.52 µM at Prothrombin [4].
For the molecule `CC(=N)N1CCC(Oc2ccc(NC/C(C)=C/c3cccc(C(=N)N)c3)cc2[N+](=O)[O-])CC1`, the Ki was 0.07 nM at Coagulation factor X, 1550 nM at Prothrombin [1] and 5 nM at Serine protease 1.
Regarding `CN1CCC(Oc2ccc(NC/C=C/c3cc(C(=N)N)ccc3O)cc2C(F)(F)F)CC1`, the results for the Ki at Coagulation factor X, at Prothrombin [1] and at Serine protease 1 were 0.58 nM, 1820 nM and 630 nM, respectively. Also, the Concentration on Prothrombin [3] was 156 µM; at Prothrombin [4], 0.98 µM.
For the molecule `CC(=O)N1CCC(Oc2ccc(NC/C=C/c3cc(C(=N)N)ccc3O)cc2C(F)(F)F)CC1`, the Ki on Coagulation factor X was 18.5 nM; at Prothrombin [1] it was 480 nM; at Serine protease 1, 830 nM. Also, the Concentration was 151 µM on Prothrombin [3] and 21 µM at Prothrombin [4].
For the molecule `N=C(N)c1ccc(O)c(/C=C/CNc2ccc(OC3CCN(C(N)=O)CC3)c(C(F)(F)F)c2)c1`, the Ki at Coagulation factor X stood at 7.3 nM; on Prothrombin [1], 250 nM; on Serine protease 1, 520 nM.
Consider `N=C(N)c1ccc(O)c(/C=C/CN(C(=O)CCC(=O)O)c2ccc(OC3CCN(CC(=O)O)CC3)c(C(F)(F)F)c2)c1`, for which the Ki at Coagulation factor X was 0.34 nM; on Prothrombin [1], above 5000 nM; at Serine protease 1, 870 nM.
For `CC(=N)N1CCC(Oc2ccc(NC/C=C/c3cccc(C(=N)N)c3)cc2[N+](=O)[O-])CC1`, the values for the Ki on Coagulation factor X, at Prothrombin [1] and on Serine protease 1 were 0.27 nM, 2900 nM and 27 nM, respectively.
Taken in the same sequence, the figures for `CN1CCC(Oc2ccc(N(C/C=C/c3cc(C(=N)N)ccc3O)C(=O)CCC(=O)O)cc2C(F)(F)F)CC1` were 0.28 nM, above 5000 nM and 765 nM.
For `CC(=N)N1CCC(Oc2ccc(NC/C=C/c3cc(C(=N)N)ccc3O)cc2C(F)(F)F)CC1`, the Ki on Coagulation factor X is 0.1 nM; on Prothrombin [1], 1100 nM; at Serine protease 1, 200 nM. In addition, in assay [2], the Ratio amounted to 2000. Also, the Concentration on Prothrombin [3] came out at 210 µM; on Prothrombin [4], 1.05 µM.
As for `CS(=O)(=O)N1CCC(Oc2ccc(NC/C=C/c3cc(C(=N)N)ccc3O)cc2C(F)(F)F)CC1`, the figures for the Ki on Coagulation factor X and at Serine protease 1 were 44 nM and 1250 nM, respectively.
On to `CCOC(=O)CCC(=O)N(C/C=C/c1cc(C(=N)N)ccc1O)c1ccc(OC2CCN(C(C)=N)CC2)c(C(F)(F)F)c1`, for which the Ki at Coagulation factor X amounted to 0.07 nM; at Prothrombin [1], 2280 nM; at Serine protease 1 it was 230 nM. The Ratio in assay [2] was 3300. Further, the Concentration at Prothrombin [3] was determined as 265 µM; on Prothrombin [4], 0.8 µM.
